{"source": "paper PMC7238232", "about": "“Acamprosate Is a Substrate of the Human Organic Anion Transporter (OAT) 1 without OAT3 Inhibitory Properties: Implications for Renal Acamprosate Secretion and Drug–Drug Interactions” (Pharmaceutics, 2020)", "key": {"[1]": {"settings": "rats, cited from earlier work"}, "[2]": {"system": "ASBT", "settings": "Caco-2 cells, preliminary data; cited from earlier work"}, "[3]": {"target": "T1, OAT3 (Homo sapiens, UniProt Q8TCC7)", "T1 sequence (Q8TCC7 1-542)": "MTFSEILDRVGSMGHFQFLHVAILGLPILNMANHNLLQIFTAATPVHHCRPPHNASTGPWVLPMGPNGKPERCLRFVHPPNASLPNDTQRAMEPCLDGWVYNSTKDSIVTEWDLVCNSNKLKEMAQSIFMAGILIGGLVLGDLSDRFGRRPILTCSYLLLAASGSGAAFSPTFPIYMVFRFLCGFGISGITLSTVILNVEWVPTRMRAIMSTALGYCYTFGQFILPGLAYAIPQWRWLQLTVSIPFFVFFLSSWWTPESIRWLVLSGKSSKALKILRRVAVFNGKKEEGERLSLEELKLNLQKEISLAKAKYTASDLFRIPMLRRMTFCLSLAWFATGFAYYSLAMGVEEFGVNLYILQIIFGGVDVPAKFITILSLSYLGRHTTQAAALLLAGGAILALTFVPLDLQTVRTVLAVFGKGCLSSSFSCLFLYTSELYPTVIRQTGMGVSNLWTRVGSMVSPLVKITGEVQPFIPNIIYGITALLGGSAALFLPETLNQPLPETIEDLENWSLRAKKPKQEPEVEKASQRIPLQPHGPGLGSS", "assay": "Acamprosate intracellular uptake in HEK293-Flp-In OAT3 cells (LC/MS-MS)", "format": "cell-based", "settings": "200 µM acamprosate; 10 min; Lab. 1", "experimental": "The experiments were done on cells cultured in 24-well plates in Lab. 1. For the time-dependent uptake, the experiment was initiated by replacing the incubation buffer with 200 µL prewarmed 200 µM solution of acamprosate in uptake buffer. The plates were incubated in an orbital plate shaker at 37 °C and 100 rpm for 5, 15, 30, 45, 60, or 90 min and experiments were stopped by washing with 3 × 500 µL ice-cold buffer. […] The plates were incubated in an orbital plate shaker (Incubating microplate shaker from VWR International AB, Stockholm, Sweden) at 37 °C and 100 rpm for 10 min (time point at which substrate uptake was within the linear range) and experiments were stopped by washing with 3 × 500 µL∙well^−1 ice-cold buffer. The cells were then lysed with 200 µL 50 nM warfarin in 60:40 acetonitrile (ACN):water (IS solution) and mixed thoroughly. The samples were moved to 96-well LC/MS-MS plates. The wells from the uptake experiment were rinsed again with 200 µL IS solution and the resulting volumes were added to the corresponding well on the same 96-well plate. […] The plates were covered with aluminum seals and centrifuged at 3500 rpm and 5 °C for 20 min and the amount of acamprosate in the supernatant was quantified by LC/MS-MS.\nAcamprosate was quantified in Lab. […] Quantification was done by multiple reaction monitoring of parent and daughter ions. […]"}, "[4]": {"system": "HEK293-Flp-In OAT3 cells", "assay": "CellTiter-Glo cell viability assay, OAT3 transfected cells", "settings": "up to 3300 µM acamprosate; 3 h"}}, "note": "Read-outs that look alike come from different tables or passages of the source.", "data": [{"smiles": "CC(=O)NCCCS(=O)(=O)O", "note": "[acamprosate, acetylhomotaurinate]", "values": [{"measurement": "CLR, % of the initial CLR", "setting": "[1]; 9.3 mg/kg acamprosate i.v. with 33.3 mg/kg probenecid", "value": 59, "unit": "%"}, {"measurement": "CLR, % of the initial CLR", "setting": "[1]; 9.3 mg/kg acamprosate i.v. with 66.6 mg/kg probenecid", "value": 45, "unit": "%"}, {"measurement": "unbound acamprosate CLR with probenecid, compared to control", "setting": "[1]", "value": 0.45, "unit": "fold"}, {"measurement": "increase in acamprosate AUC0∞ caused by probenecid", "setting": "[1]; compared to control", "value": 2.2, "unit": "fold"}, {"measurement": "renal clearance (CLR)", "setting": "[1]; intravenous 9.3 mg/kg acamprosate, without probenecid", "value": 0.35, "unit": "L/h"}, {"measurement": "inhibition of substrate transport via ASBT", "setting": "[2]", "value": "did not inhibit"}, {"measurement": "acamprosate uptake in OAT3 expressing cells compared to mock cells", "setting": "[3]", "value": "similar"}, {"measurement": "decrease in cell viability", "setting": "[4]", "value": "≤ 10", "unit": "%"}]}]}
